Values quoted from earlier work in patent publication US20200392379A1, “TRANSFER FILM, METHOD FOR MANUFACTURING LAMINATE, LAMINATE, CAPACITIVE INPUT DEVICE, AND IMAGE DISPLAY DEVICE” (FUJIFILM Corporation, priority 2018, published 2020).

Row | pKa of conjugate acid | Compound
1 | 1.21 | O=C(O)CC(Cn1nnc2ccccc21)C(=O)O (centres unmarked) [1-(2,3-Dicarboxypropyl)benzotriazole]
2 | 0.09 | O=C(O)CC(C(=O)O)n1nnc2ccccc21 (centres unmarked) [1-(1′,2′-Dicarboxyethyl)benzotriazole]
3 | 1.17 | c1ccc2[nH]nnc2c1 [1,2,3-Benzotriazole]
4 | 5.67 | c1ccc2[nH]cnc2c1 [Benzimidazole]
5 | −4.56 | Sc1nnnn1-c1ccccc1 [5-Mercapto-1-phenyl-1H-tetrazole]
6 | 1.49 | Cc1cc(Cn2nnc3ccccc32)c(O)c(Cn2nnc3ccccc32)c1 [2,6-Bis[(1H-benzotriazol-1-yl)methyl]-4-methylphenol]
7 | 3.02 | Nc1ccc2[nH]c(S)nc2c1 [5-Amino-2-mercaptobenzimidazole]
8 | −2.88 | c1ccc(-c2nnn[nH]2)cc1 [5-Phenyl-1H-tetrazole]

Further lines, the compound ahead of its results:

Row | Compound | pKa of conjugate acid
9 | CCCCC(CC)CN(CC(CC)CCCC)Cn1nnc2ccccc21 (centres unmarked) [1-[N,N-bis(2-ethylhexyl)aminomethyl]benzotriazole] | 6.68
10 | Sc1nc[nH]n1 [3-Mercapto-1,2,4-triazole] | 1.30
11 | Sc1nnc(S)s1 [1,3,4-Thiadiazole-2,5-dithiol] | −2.11
12 | Cc1ncc[nH]1 [2-Methylimidazole] | 8.15
13 | Nc1nnn[nH]1 [5-Amino-1H-tetrazole] | 1.29
14 | CSc1nc(N)n[nH]1 [3-Amino-5-methylthio-1H-1,2,4-triazole] | 2.99
15 | Cn1nnnc1S [1-Methyl-5-mercaptotetrazole] | −2.98
16 | Sc1nc2ccccc2[nH]1 [2-Mercaptobenzimidazole] | 2.38
17 | Nc1cnns1 [5-Amino-1,2,3-thiadiazole] | 0.34
18 | CSc1nnc(N)s1 [2-Amino-5-methylthio-1,3,4-thiadiazole] | 2.12
19 | Sc1nncs1 [2-Mercapto-1,3,4-thiadiazole] | −1.09
20 | CSc1nnc(S)s1 [2-Mercapto-5-methylthio-1,3,4-thiadiazole] | −1.32
